This test deals with T1, human RNR (histidine tagged human M1 and human M2 proteins) (Homo sapiens, UniProt P23921).
T1 construct: made in house; host or cells: Escherichia coli
T1 sequence (P23921 1-792): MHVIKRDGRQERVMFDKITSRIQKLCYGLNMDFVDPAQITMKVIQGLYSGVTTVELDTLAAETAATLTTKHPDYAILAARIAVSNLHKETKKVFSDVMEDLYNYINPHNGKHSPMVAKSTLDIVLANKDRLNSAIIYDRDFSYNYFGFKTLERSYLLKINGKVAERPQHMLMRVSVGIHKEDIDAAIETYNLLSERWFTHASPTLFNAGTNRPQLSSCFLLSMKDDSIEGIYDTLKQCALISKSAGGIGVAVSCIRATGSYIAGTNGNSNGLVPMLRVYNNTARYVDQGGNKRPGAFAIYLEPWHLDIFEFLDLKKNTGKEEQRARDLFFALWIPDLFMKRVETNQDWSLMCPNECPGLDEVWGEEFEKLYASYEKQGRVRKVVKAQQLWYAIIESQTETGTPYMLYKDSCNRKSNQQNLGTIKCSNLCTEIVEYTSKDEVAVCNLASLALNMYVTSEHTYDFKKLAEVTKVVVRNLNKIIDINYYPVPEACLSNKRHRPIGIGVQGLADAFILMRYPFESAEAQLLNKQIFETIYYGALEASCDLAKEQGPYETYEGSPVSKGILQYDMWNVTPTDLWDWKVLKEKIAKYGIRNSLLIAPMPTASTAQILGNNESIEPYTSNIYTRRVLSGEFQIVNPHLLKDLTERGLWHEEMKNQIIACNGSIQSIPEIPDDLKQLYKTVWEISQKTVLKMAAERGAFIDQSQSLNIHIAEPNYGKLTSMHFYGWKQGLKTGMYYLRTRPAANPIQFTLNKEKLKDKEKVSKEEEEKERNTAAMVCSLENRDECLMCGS
Kind of test: Human RNR inhibition effect (dCDP formation from CDP). To be noted: 10 μM CDP, 37° C. for 30 minutes, read-out: RNR inhibitory activity IC50. Format: biochemical. The gist of the method: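 His-tagged human M1 (isoform 1) and N-terminal 59-aa-truncated M2 (isoform 2), E. coli-expressed, Ni-purified, preincubated 20 min with compound (1% DMSO). Reaction with 10 μM CDP, 2 mM ATP, 0.24 mM NADPH, 6 mM DTT, 4 mM Mg acetate, 100 mM KCl, 50 mM HEPES pH 7.2, 30 min at 37° C. dCDP formed quantified by reverse-phase HPLC after heat stop.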

For orientation: IC50 means the concentration at which inhibition is half-maximal. Take `CCc1ccc(F)c([C@@H](C)[C@H](NS(=O)(=O)c2ccc(Cl)c(C(C)O)c2OC)c2n[nH]c(=O)o2)c1C` (stereo partly drawn) [Example 206A, 4-chloro-N-((1S,2R)-2-(3-ethyl-6-fluoro-2-methylphenyl)-1-(5-oxo-4,5-dihydro-1,3,4-oxadiazol-2-yl)propyl)-3-(1-hydroxyethyl)-2-methoxybenzenesulfonamide]: the IC50 came to 0.15 µM. `Cc1ccc(F)c([C@@H](C)[C@H](NS(=O)(=O)c2ccc(Cl)cc2C(=O)O)c2n[nH]c(=O)o2)c1C` [Example 210, 5-chloro-2-(N-((1S,2R)-2-(6-fluoro-2,3-dimethylphenyl)-1-(5-oxo-4,5-dihydro-1,3,4-oxadiazol-2-yl)propyl)sulfamoyl)benzoic acid]: the IC50 was found to be 0.18 µM. The same measure for `Cc1ccc(F)c([C@@H](C)[C@H](NS(=O)(=O)c2cccc3c2OCCC3(O)C(F)(F)F)c2n[nH]c(=O)o2)c1C` (stereo partly drawn) [Example 211A, N-((1S,2R)-2-(6-fluoro-2,3-dimethylphenyl)-1-(5-oxo-4,5-dihydro-1,3,4-oxadiazol-2-yl)propyl)-4-hydroxy-4-(trifluoromethyl)chroman-8-sulfonamide]: 0.12 µM; for `COc1c(S(=O)(=O)N[C@H](c2n[nH]c(=O)o2)[C@H](C)c2c(F)ccc(C)c2C)ccc(Cl)c1C(C)(C)O` [Example 212, 4-chloro-N-((1S,2R)-2-(6-fluoro-2,3-dimethylphenyl)-1-(5-oxo-4,5-dihydro-1,3,4-oxadiazol-2-yl)propyl)-3-(2-hydroxypropan-2-yl)-2-methoxybenzenesulfonamide]: 0.11 µM. Turning to `Cc1ccc(F)c([C@@H](C)[C@H](NS(=O)(=O)c2ncc(Cl)cc2C(=O)O)c2n[nH]c(=O)o2)c1C` [Example 213, 5-chloro-2-(N-((1S,2R)-2-(6-fluoro-2,3-dimethylphenyl)-1-(5-oxo-4,5-dihydro-1,3,4-oxadiazol-2-yl)propyl)sulfamoyl)nicotinic acid], the IC50 came out at 0.5 µM. The figure for `Cc1ccc(F)c([C@@H](C)[C@H](NS(=O)(=O)c2ncc(Br)cc2C(=O)O)c2n[nH]c(=O)o2)c1C` [Example 214, 5-bromo-2-(N-((1S,2R)-2-(6-fluoro-2,3-dimethylphenyl)-1-(5-oxo-4,5-dihydro-1,3,4-oxadiazol-2-yl)propyl)sulfamoyl)nicotinic acid] is 0.99 µM; for `Cc1ccc(F)c([C@@H](C)[C@H](NS(=O)(=O)c2ccc(Cl)c(C(=O)O)n2)c2n[nH]c(=O)o2)c1C` [Example 215, 3-chloro-6-(N-((1S,2R)-2-(6-fluoro-2,3-dimethylphenyl)-1-(5-oxo-4,5-dihydro-1,3,4-oxadiazol-2-yl)propyl)sulfamoyl)picolinic acid] it is 0.19 µM. On to `COc1c(S(=O)(=O)N[C@H](c2n[nH]c(=O)o2)[C@H](C)c2c(F)ccc(C)c2C)ncc(Cl)c1C(C)O` (stereo partly drawn) [Example 216, 5-chloro-N-((1S,2R)-2-(6-fluoro-2,3-dimethylphenyl)-1-(5-oxo-4,5-dihydro-1,3,4-oxadiazol-2-yl)propyl)-4-(1-hydroxyethyl)-3-methoxypyridine-2-sulfonamide], for which the IC50 amounted to 0.2 µM. Consider `Cc1ccc(F)c([C@@H](C)[C@H](NS(=O)(=O)c2cc(F)c(Cl)cc2C(=O)O)c2n[nH]c(=O)o2)c1C` [Example 217, 5-chloro-4-fluoro-2-(N-((1S,2R)-2-(6-fluoro-2,3-dimethylphenyl)-1-(5-oxo-4,5-dihydro-1,3,4-oxadiazol-2-yl)propyl)sulfamoyl)benzoic acid], for which the IC50 is 0.96 µM. Regarding `Cc1ccc(F)c([C@@H](C)[C@H](NS(=O)(=O)c2c(F)cc(Cl)cc2C(=O)O)c2n[nH]c(=O)o2)c1C` [Example 219, 5-chloro-3-fluoro-2-(N-((1S,2R)-2-(6-fluoro-2,3-dimethylphenyl)-1-(5-oxo-4,5-dihydro-1,3,4-oxadiazol-2-yl)propyl)sulfamoyl)benzoic acid], the IC50 came out at 0.27 µM. The figure for `Cc1ccc(F)c([C@@H](C)[C@H](NS(=O)(=O)c2cc3c(cc2C(=O)O)OCCO3)c2n[nH]c(=O)o2)c1C` [Example 223, 7-(N-((1S,2R)-2-(6-fluoro-2,3-dimethylphenyl)-1-(5-oxo-4,5-dihydro-1,3,4-oxadiazol-2-yl)propyl)sulfamoyl)-2,3-dihydrobenzo[b][1,4]dioxin-6-Carboxylic Acid] is 0.79 µM; for `CC(O)c1cc(S(=O)(=O)N[C@H](c2n[nH]c(=O)o2)[C@H](C)c2cccc3c2CCC3)ccc1Cl` (stereo partly drawn) [Example 231, 4-chloro-N-((1S,2R)-2-(2,3-dihydro-1H-inden-4-yl)-1-(5-oxo-4,5-dihydro-1,3,4-oxadiazol-2-yl)propyl)-3-(1-hydroxyethyl)benzensulfonamide] it is 0.65 µM. Consider `Cc1cccc2cccc([C@@H](C)[C@H](NS(=O)(=O)c3ccc(Cl)c4c3OCCC4O)c3n[nH]c(=O)o3)c12` (stereo partly drawn) [Example 232, 5-chloro-4-hydroxy-N-((1S,2R)-2-(8-methylnaphthalene-1-yl)-1-(5-oxo-4,5-dihydro-1,3,4-oxadiazol-2-yl)propyl)chroman-8-sulfonamide], for which the IC50 came out at 0.23 µM. The same measure for `C[C@H](c1c(F)ccc2ccccc12)[C@H](NS(=O)(=O)c1ccc(Cl)c2c1OCCC2O)c1n[nH]c(=O)o1` (stereo partly drawn) [Example 233, 5-chloro-N-((1S,2R)-2-(2-fluoronaphthalene-1-yl)-1-(5-oxo-4,5-dihydro-1,3,4-oxadiazol-2-yl)propyl)-4-hydroxychroman-8-sulfonamide]: 0.13 µM; for `Cc1ccc(F)c([C@@H](C)[C@H](NS(=O)(=O)c2ccc(Cl)cc2C(C)O)c2n[nH]c(=O)o2)c1C` (stereo partly drawn) [Example 236, 4-chloro-N-((1S,2R)-2-(6-fluoro-2,3-dimethylphenyl)-1-(5-oxo-4,5-dihydro-1,3,4-oxadiazol-2-yl)propyl)-2-(1-hydroxyethyl)benzenesulfonamide]: 0.38 µM; for `Cc1ccc(F)c([C@@H](C)[C@H](NS(=O)(=O)c2ccc(Cl)c3c2C(O)CCC3)c2n[nH]c(=O)o2)c1C` (stereo partly drawn) [Example 240, 4-chloro-N-((1S,2R)-2-(6-fluoro-2,3-dimethylphenyl)-1-(5-oxo-4,5-dihydro-1,3,4-oxadiazol-2-yl)propyl)-8-hydroxy-5,6,7,8-tetrahydronaphthalene-1-sulfonamide]: 0.91 µM. The same measure for `Cc1ccc(F)c([C@@H](C)[C@H](NS(=O)(=O)c2ccc(F)c3c2OCCC3O)c2n[nH]c(=O)o2)c1C` (stereo partly drawn) [Example 241, 5-fluoro-N-((1S,2R)-2-(6-fluoro-2,3-dimethylphenyl)-1-(5-oxo-4,5-dihydro-1,3,4-oxadiazol-2-yl)propyl)-4-hydroxychroman-8-sulfonamide]: 0.14 µM; for `Cc1ccc(F)c([C@@H](C)[C@H](NS(=O)(=O)c2c(F)cc(F)c3c2OCCC3O)c2n[nH]c(=O)o2)c1C` (stereo partly drawn) [Example 242, 5,7-difluoro-N-((1S,2R)-2-(6-fluoro-2,3-dimethylphenyl)-1-(5-oxo-4,5-dihydro-1,3,4-oxadiazol-2-yl)propyl)-4-hydroxychroman-8-sulfonamide]: 0.23 µM; for `Cc1ccc(F)c([C@@H](C)[C@H](NS(=O)(=O)c2ncc(Cl)cc2C(N)=O)c2n[nH]c(=O)o2)c1C` [Example 245, 5-chloro-2-(N-((1S,2R)-2-(6-fluoro-2,3-dimethylphenyl)-1-(5-oxo-4,5-dihydro-1,3,4-oxadiazol-2-yl)propyl)sulfamoyl)nicotinamide]: 0.04 µM. In the case of `Cc1ccc(F)c([C@@H](C)[C@H](NS(=O)(=O)c2ccc(Cl)cc2C(=O)N(C)C)c2n[nH]c(=O)o2)c1C` [Example 246, 5-chloro-2-(N-((1S,2R)-2-(6-fluoro-2,3-dimethylphenyl)-1-(5-oxo-4,5-dihydro-1,3,4-oxadiazol-2-yl)propyl)sulfamoyl)-N,N-dimethylbenzamide], the IC50 was 0.5 µM. On to `Cc1ccc(F)c([C@@H](C)[C@H](NS(=O)(=O)c2ccc(Cl)cc2C(=O)N2CCC2)c2n[nH]c(=O)o2)c1C` [Example 247, 2-(azetidine-1-carbonyl)-4-chloro-N-((1S,2R)-2-(6-fluoro-2,3-dimethylphenyl)-1-(5-oxo-4,5-dihydro-1,3,4-oxadiazol-2-yl)propyl)benzenesulfonamide], for which the IC50 is 0.41 µM.

`Cc1ccc(F)c([C@@H](C)[C@H](NS(=O)(=O)c2ccc(Cl)cc2C(=O)NCCO)c2n[nH]c(=O)o2)c1C` [Example 248, 5-chloro-2-(N-((1S,2R)-2-(6-fluoro-2,3-dimethylphenyl)-1-(5-oxo-4,5-dihydro-1,3,4-oxadiazol-2-yl)propyl)sulfamoyl)-N-(2-hydroxyethyl)benzamide]: the IC50 is 0.27 µM.
